In PMC3898838, “Design, Synthesis, and Biological Evaluation of an Allosteric Inhibitor of HSET that Targets Cancer Cells with Supernumerary Centrosomes” (Chemistry & Biology, 2013):

Experiments:
[1] = biological target: T1, full-length, N-terminal, 6His-tagged human HSET (Homo sapiens, UniProt Q9BW19); assay: In vitro enzymatic ATPase assay (ADP-Glo), MT-stimulated activity; format: biochemical
T1 construct: The protocol was optimized for use with full-length, N-terminal, 6His-tagged HSET and KSP; made in house; host or cells: Sf9 insect cells (baculovirus, pFastBac1)
T1 sequence (Q9BW19 1-673): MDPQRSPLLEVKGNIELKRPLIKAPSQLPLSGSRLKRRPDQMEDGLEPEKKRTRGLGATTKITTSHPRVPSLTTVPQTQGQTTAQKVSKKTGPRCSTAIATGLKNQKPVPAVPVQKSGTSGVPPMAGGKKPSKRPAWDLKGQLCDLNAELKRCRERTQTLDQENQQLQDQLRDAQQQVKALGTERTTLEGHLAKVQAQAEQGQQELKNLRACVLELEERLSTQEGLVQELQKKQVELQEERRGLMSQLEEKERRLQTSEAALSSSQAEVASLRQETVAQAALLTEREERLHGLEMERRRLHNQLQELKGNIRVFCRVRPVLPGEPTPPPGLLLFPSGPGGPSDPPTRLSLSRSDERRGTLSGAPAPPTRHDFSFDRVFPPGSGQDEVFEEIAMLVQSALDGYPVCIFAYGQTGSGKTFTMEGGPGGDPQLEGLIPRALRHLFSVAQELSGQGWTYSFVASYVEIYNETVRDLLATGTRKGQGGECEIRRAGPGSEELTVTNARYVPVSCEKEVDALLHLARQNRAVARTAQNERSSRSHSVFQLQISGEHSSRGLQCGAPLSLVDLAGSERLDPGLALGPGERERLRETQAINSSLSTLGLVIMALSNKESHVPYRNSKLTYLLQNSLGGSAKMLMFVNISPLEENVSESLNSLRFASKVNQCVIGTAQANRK
Text: The similarity decreases to 56% in the loop 5 binding cleft alone (residues 422–432; Figure 1A). Given the high degree of similarity between the proteins, and the potential for selective binding in the loop 5 cleft, the chemogenomics principle that similar proteins bind similar ligands was applied to HSET and KSP, and an in silico model for HSET binding was developed based on nearly 500 existing inhibitors of KSP in the ChEMBL database (see Experimental Procedures for details; [Klabunde, 2007]). Using the model parameters, we selected 200 compounds (in silico) from 20 million possibilities and further triaged them into 50 ligands that scored highest in the bioactivity model. We acquired and tested these ligands for in vitro activity using an ADP-Glo enzymatic assay (see Experimental Procedures for details; Figure 1B).
The protocol was optimized for use with full-length, N-terminal, 6His-tagged HSET and KSP, and measured the MT-stimulated activity of the proteins. Inhibition of the […] of HSET/KSP was observed spectrophotometrically by coupling the hydrolysis of ATP to oxidation of NADH via pyruvate kinase/lactate dehydrogenase reactions. The assay was initiated by […] an assay mixture containing the following components (final concentration): 6 nM protein, 0.07 mg/ml MTs (University Biologicals), […], 2 mM ATP, 2.7 mM MgCI, 1 mM phospho(enol)-pyruvate, 0.2 mM NADH, 50 μg/ml lactate dehydrogenase, 100 μg/ml pyruvate kinase, and various concentrations of inhibitor all in 50 mM Na PIPES (pH 6.8) at 37°C. The ADP-Glo detection assay (Promega) was performed as described in the manufacturer’s instructions. All compound additions were performed using a multidrop BioMek Nxp (Beckman Coulter). Plates were read using a Pherastar microplate reader (BMG Labtech).

HeLa cells = assay: Immunofluorescence after time-lapse imaging, monopolar/bipolar spindles; format: cell-based, human; conditions: 200 μM CW069, 100 μM monastrol, 40 mitotic cells
Text: Immediately after time-lapse imaging, cells were fixed and antibodies against α-tubulin, CDK5RAP2, and DAPI were employed to visualize MTs, centrosomes, and DNA, respectively. […] Control HeLa cells formed mainly bipolar spindles (92%), with two centrosomes positioned at the spindle poles on either side of the metaphase plate (Figure 6C; Table 1). Similar numbers of bipolar spindles were formed in CW069-treated cells (95%; Figure 6C; Table 1). Monastrol-treated cells almost exclusively formed monopolar spindles (97%) with one pole surrounded by DNA ([Luo et al., 2004]; Figure 6C; Table 1). Normal bipolar spindle formation was indeed restored for many cells (45%) when the HSET inhibitor CW069 was administered along with the KSP inhibitor monastrol (Figure 6C; Table 1).
Cells were plated at a seeding density of 1.2 × 10^4 cells per well in Ibidi eight-well chamber slides, incubated for 24 hr, and then treated with compound for 3 hr. Prewarmed 4% paraformaldehyde in PBS was then added to each well to fix the cells before washing with PBS. Permeabilization and blocking was performed by incubating the slides with 1% BSA, 0.3% Triton X-100, 5% goat serum in PBS (PBS/B/0.3%T+5%GS) for 1 hr while shaking them at room temperature (RT). The slides were incubated with primary antibody solutions (mouse monoclonal anti-α-Tubulin [catalog number T9026; Sigma-Aldrich] and rabbit anti-CDK5RAP2 [catalog number A300-554A; Bethyl Laboratories]) at 4°C for 16 hr. The slides were washed four times with PBS/B/0.3%T+5%GS and then incubated with secondary antibody solutions (anti-rabbit IgG Alexa Fluor 488 [catalog number A21206] and anti-mouse IgG Alexa Fluor 647 [catalog number A20990]; Invitrogen) and DAPI (catalog number D3571; Invitrogen) in deionized water (300 nM) in the dark at RT for 1 hr. After four washes with PBS/B/0.3%T+5%GS, the solution was replaced with PBS and the slides were stored at 4°C until imaging was performed. Images were gathered with the use of an ICys Research Imaging Cytometer (CompuCyte) or a tandem confocal microscope (Leica).

IC50 ([1]; concentrations up to 250 μM, mean ± SD): 75 ± 20 µM
selectivity for HSET over KSP ([1]; from IC50 values, HSET vs KSP): ~4 fold
SMILES: O=C(O)c1cc(I)ccc1NC(=O)[C@H](Cc1ccccc1)NCc1ccccc1 [CW069]
Bipolar Spindle (%) (HeLa cells): 95%
Monopolar Spindle (%) (HeLa cells): 5%
